In PubChem BioAssay (NCI):
“And” between values parts separate entries of the source, which are not always exact repeats. Equal values may be shown once.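 Interpolation was linear, between the two tested concentrations surrounding the appropriate level; five concentrations were tested over 48 hours in 96-well plates. GI50 marks 50% less growth. Definition used: TGI = concentration required for complete inhibition of growth.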

Tests used:
Assay in all cases: DTP human tumour cell line panel, 48 h
SF-539 CNS = test system: SF-539 CNS
HT29 colon = test system: HT29 colon
UACC-257 melanoma = test system: UACC-257 melanoma
HL-60(TB) leukemia = test system: HL-60(TB) leukemia
TK-10 renal = test system: TK-10 renal
NCI/ADR-RES ovarian = test system: NCI/ADR-RES ovarian
CAKI-1 renal = test system: CAKI-1 renal
SK-OV-3 ovarian = test system: SK-OV-3 ovarian
HCT-116 colon = test system: HCT-116 colon
EKVX NSCLC = test system: EKVX NSCLC

Row | Structure (SMILES) | GI50 (SF-539 CNS) [µM] | TGI (SF-539 CNS) [µM] | GI50 (HT29 colon) [µM] | TGI (HT29 colon) [µM] | GI50 (UACC-257 melanoma) [µM] | TGI (UACC-257 melanoma) [µM] | GI50 (HL-60(TB) leukemia) [µM] | TGI (HL-60(TB) leukemia) [µM] | GI50 (TK-10 renal) [µM] | TGI (TK-10 renal) [µM] | GI50 (NCI/ADR-RES ovarian) [µM] | TGI (NCI/ADR-RES ovarian) | GI50 (CAKI-1 renal) [µM] | TGI (CAKI-1 renal) [µM] | GI50 (SK-OV-3 ovarian) [µM] | TGI (SK-OV-3 ovarian) [µM] | GI50 (HCT-116 colon) [µM] | TGI (HCT-116 colon) [µM] | GI50 (EKVX NSCLC) [µM] | TGI (EKVX NSCLC) [µM]
1 | CC(=O)N[C@@H](Cc1ccc(OP(=O)(O)O)cc1)C(=O)N[C@H]1CCC(=O)N2CCC[C@@H](C(=O)NCc3cccc4ccccc34)N2C1=O | > 25 | > 25 | > 25 | > 25 | > 25 | > 25 | > 25 | > 25 | > 25 | > 25 | > 25 | > 25 µM | > 25 | > 25 | > 25 | > 25 | > 25 | > 25 | – | –
2 | Cc1ccc([I+]c2ccc(C)cc2)cc1 | 16.4 | > 100 | 0.887 | 27.4 | 2.71 | 57.4 | – | – | 6.63 | > 100 | > 100 | > 100 µM | 4.55 | 71.4 | 21.8 | > 100 | 0.821 | > 100 | 0.484 | 42.5
3 | COC(=O)C(=O)C(C(=O)C(=O)Nc1ccccc1C(N)=O)c1nc2ccc([N+](=O)[O-])cc2[nH]c1=O (configuration not stated) | – | > 100 | – | > 100 | – | > 100 | – | > 100 | – | > 100 | – | – | – | > 100 | – | > 100 | – | > 100 | – | > 100
4 | Cc1cn2c(/C=N/NC3=NCCN3)c(-c3ccc(Cl)c([N+](=O)[O-])c3)nc2s1 | 0.962 | 1.85 | – | – | 1.6 | 7.24 | – | – | 1.05 | 2.7 | 7.75 | 21.5 µM | 1.98 | 10 | 1.53 | 3.68 | 0.949 | 1.72 | 3.07 | 10.8
5 | O=C(O)c1cc(C(=O)C(=O)c2cc(C(=O)O)c(O)c3ccccc23)c2ccccc2c1O | – | > 100 | – | > 100 | – | > 100 | – | – | – | > 100 | – | > 100 µM | – | > 100 | – | > 100 | – | > 100 | – | > 100
6 | Fc1ccc(-c2nn3c(COc4ccccc4Cl)nnc3s2)cc1Oc1ccccc1 | 32.2 | 92.1 | 44.9 | > 100 | > 100 | > 100 | – | – | 20.5 | 47.1 | 26.6 | 76.5 µM | 19.4 | 44 | – | – | 23.2 | 66.1 | 49 | > 100
7 | CCOC(=O)Cc1csc(Nc2nc(O)c(C3=c4ccccc4=NC3=O)s2)n1 | 60 | > 100 | 46 | > 100 | 76.9 | > 100 | – | – | 44.7 | > 100 | 55.6 | > 100 µM | 24.3 | 57.2 | 31.1 | 67.6 | 13.6 | 26.5 | 77.6 | > 100
8 | Cc1ccc(C)c(N2C(=O)C(=O)C(c3nc4ccccc4s3)C(=O)C2=O)c1 | – | > 100 | – | > 100 | – | > 100 | – | > 100 | – | > 100 | – | – | – | > 100 | – | > 100 | – | > 100 | – | > 100
9 | O=C1C2=C(c3ccccc31)C(c1ccccc1Cl)NC(=S)N2 (configuration not stated) | – | > 100 | – | > 100 | – | > 100 | – | > 100 | – | > 100 | – | – | – | > 100 | – | > 100 | – | > 100 | – | > 100
10 | N#CCC(=O)N/N=C(/C(=O)Nc1ccccc1)C1C(=O)N(c2ccccc2)N=C1N (configuration not stated) | – | > 100 | – | > 100 | – | > 100 | – | > 100 | – | > 100 | – | – | – | > 100 | – | > 100 | – | > 100 | – | > 100
11 | Cc1cc2c(=O)cc(-c3ccc(O)cc3)oc2c(C(=O)O)c1C | – | > 100 | – | > 100 | – | > 100 | – | > 100 | – | > 100 | – | – | – | 69.2 | – | > 100 | – | > 100 | – | > 100
12 | O=C(O)c1ccc(NCn2nc(-c3ccccc3O)oc2=S)cc1O | – | – | > 100 | > 100 | > 100 | > 100 | > 100 | > 100 | > 100 | > 100 | > 100 | > 100 µM | > 100 | > 100 | – | – | 44.9 | > 100 | > 100 | > 100
13 | Nc1cc2c(c3ccccc13)C(CCl)CN2C(=O)c1cc2cc(NC(=O)c3cc4ccccc4o3)ccc2[nH]1 (configuration not stated) | – | – | – | – | – | – | > 0.11 | < 0.11 | – | – | > 0.11 | 0.0078 µM and < 0.11 µM | > 0.11 | < 0.11 | – | 5.5 | > 0.11 | > 1100 | – | 0.43
14 | O=C(Cc1c(C(=O)Nc2ccccc2)sc(C(=O)Nc2ccccc2)c1CC(=O)Nc1ccccc1)Nc1ccccc1 | – | > 100 | – | > 100 | – | > 100 | – | > 100 | – | > 100 | – | – | – | > 100 | – | > 100 | – | > 100 | – | > 100
15 | CC1OC(n2ccc3ccc([N+](=O)[O-])cc32)C(O)C(O)C1O (configuration not stated) | – | > 100 | – | > 100 | – | > 100 | – | > 100 | – | > 100 | – | – | – | > 100 | – | > 100 | – | > 100 | – | > 100
16 | OCC(O)COc1ccc(F)cc1 (configuration not stated) | – | > 100 | – | > 100 | – | > 100 | – | > 100 | – | > 100 | – | – | – | > 100 | – | > 100 | – | > 100 | – | > 100
17 | CC1=CC=C2C(C)(C)CC[C@@H]3OC(=O)[C@H]1[C@]23C | – | > 100 | – | > 100 | – | > 100 | – | > 100 | – | > 100 | – | – | – | > 100 | – | > 100 | – | > 100 | – | > 100
18 | COc1ccc(/C=C/C(=O)c2ccc(B(O)O)cc2)cc1O | 12.5 | > 79.6 | 8.22 | > 60.4 | 21.6 | 59.3 | 2.52 | 44.2 | 30.4 | > 67.6 | 26.8 | > 100 µM | 17.7 | > 70.8 | 22.2 | > 89.1 | 2.64 | 10.1 | – | –
19 | COc1ccc(-c2nc(Nc3ccc(F)cc3)nc(Nc3ccc4c(c3)nc(C)n4Cc3ccccc3)n2)cc1 | 4.99 | > 100 | 1.76 | 3.56 | 7.17 | > 100 | 4.54 | > 100 | – | – | 3.23 | 12.2 µM | – | – | 10.1 | > 100 | 3 | > 100 | – | –
20 | O=C1NC(=N[C@@H]2C[C@H]2c2ccccc2)S/C1=C\c1ccc2ncccc2c1 | 1.04 | 5.07 | 1.12 | 9.04 | 5.17 | 18.9 | 0.876 | 9.47 | 0.899 | 5.58 | 2.9 | 10.1 µM | 1.03 | 6.46 | 1.06 | 4.06 | 0.839 | 5.72 | – | –
21 | O=C(O)COc1ccc2c3c1C(=O)CCC3CO2 (configuration not stated) | – | > 100 | – | > 100 | – | > 100 | – | > 100 | – | > 100 | – | – | – | > 100 | – | > 100 | – | > 100 | – | > 100
22 | O=[N+]([O-])c1cccc(C=NC23CC4CC(CC(C4)C2)C3)c1 | – | > 100 | – | > 100 | – | > 100 | – | 65.6 | – | > 100 | – | – | – | > 100 | – | > 100 | – | > 100 | – | > 100
23 | COC(=O)CCC(=O)C(CC(=O)OC)C(=O)CCC(=O)NCCc1ccccc1 (configuration not stated) | – | > 100 | – | > 100 | – | > 100 | – | > 100 | – | > 100 | – | – | – | > 100 | – | > 100 | – | > 100 | – | > 100
24 | c1ccc2c(CNCCCN3CCN(CCCNCc4cccc5ccccc45)CC3)cccc2c1 | – | 3.01 | – | 3.2 | – | 3.34 | – | 3.45 | – | 2.95 | – | – | – | 4.02 | – | 5.22 | – | 2.83 | – | 13.1
25 | CCOC(=O)Nc1ccc2c3c(cccc13)-c1ccccc1-2 | 5.65 | > 100 | 3.67 | > 100 | > 100 | > 100 | – | – | > 100 | > 100 | 4.32 | > 100 µM | 3.29 | > 100 | 9.18 | > 100 | 4.22 | > 100 | 2.18 | > 100
26 | ClCCN(CCCl)c1ccc(OCc2ccccc2)cc1 | 2.03 | 7.44 | 13.4 | 49.8 | 6.3 | 39.6 | 1.84 | 23.7 | – | – | 5.44 | > 100 µM | 0.709 | 66.5 | 7.85 | 61.4 | 6.81 | 26.9 | – | –
